Test results as given in PubChem BioAssay (NCI).
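Interpolation was linear, between the two tested concentrations surrounding the appropriate level; five concentrations were tested over 48 hours in 96-well plates. TGI denotes the concentration required for complete inhibition of growth.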

Legend:
Experiment in all cases: growth of human tumour cells (NCI), 48 h
[1] = tested on: MCF7 breast
[2] = tested on: NCI-H460 lung
[3] = tested on: UACC-62 melanoma
[4] = tested on: OVCAR-8 ovarian
[5] = tested on: CCRF-CEM leukemia
[6] = tested on: UO-31 renal
[7] = tested on: NCI-H226 lung
[8] = tested on: COLO 205 colon
[9] = tested on: SF-539 CNS
[10] = tested on: K-562 leukemia
[11] = tested on: M14 melanoma
[12] = tested on: T-47D breast
[13] = tested on: A498 renal
[14] = tested on: SN12C renal
[15] = tested on: SK-OV-3 ovarian
[16] = tested on: SW-620 colon
[17] = tested on: SK-MEL-2 melanoma
[18] = tested on: 786-0 renal
[19] = tested on: HCT-15 colon
[20] = tested on: SNB-75 CNS
[21] = tested on: OVCAR-5 ovarian
[22] = tested on: UACC-257 melanoma
[23] = tested on: NCI/ADR-RES ovarian
[24] = tested on: KM12 colon
[25] = tested on: HOP-92 NSCLC
[26] = tested on: RPMI-8226 leukemia
[27] = tested on: EKVX NSCLC
[28] = tested on: HCT-116 colon
[29] = tested on: HS 578T breast
[30] = tested on: HL-60(TB) leukemia
[31] = tested on: CAKI-1 renal
[32] = tested on: DU-145 prostate
[33] = tested on: RXF 393 renal
[34] = tested on: OVCAR-3 ovarian
[35] = tested on: SR leukemia
[36] = tested on: MDA-N
[37] = tested on: MDA-MB-231 breast
[38] = tested on: PC-3 prostate
[39] = tested on: LOX IMVI melanoma
[40] = tested on: SK-MEL-5 melanoma
[41] = tested on: MOLT-4 leukemia
[42] = tested on: ACHN renal
[43] = tested on: U251 CNS
[44] = tested on: SF-268 CNS
[45] = tested on: NCI-H522 lung
[46] = tested on: SF-295 CNS
[47] = tested on: SNB-19 CNS
[48] = tested on: HCC-2998 colon
[49] = tested on: BT-549 breast
[50] = tested on: TK-10 renal
[51] = tested on: MDA-MB-435
[52] = tested on: OVCAR-4 ovarian
[53] = tested on: HOP-62 NSCLC
[54] = tested on: IGROV1 ovarian
[55] = tested on: NCI-H23 lung

C#CCCOC(=O)CC1=C(C)/C(=C/c2ccc(S(C)=O)cc2)c2ccc(F)cc21 (stereo not given)
TGI [1]: 37.8 µM | TGI [2]: 35.4 µM | TGI [3]: 27.4 µM | TGI [4]: 42.8 µM | TGI [5]: 35 µM | TGI [6]: 33.6 µM | TGI [7]: 43.3 µM | TGI [8]: 32.9 µM | TGI [9]: 30.5 µM | TGI [10]: 35.3 µM | TGI [11]: 33.1 µM | TGI [12]: 53.7 µM | TGI [13]: 30.4 µM | TGI [14]: 35.6 µM | TGI [15]: 84.3 µM | TGI [16]: 29.9 µM | TGI [17]: 30.5 µM | TGI [18]: 44.7 µM | TGI [19]: 27.1 µM | TGI [20]: 44.8 µM | TGI [21]: > 100 µM | TGI [22]: 29.7 µM | TGI [23]: 36 µM | TGI [24]: 27.3 µM | TGI [25]: 26.1 µM | TGI [26]: 32.4 µM | TGI [27]: 71.9 µM | TGI [28]: 32.3 µM | TGI [29]: 40.4 µM | TGI [30]: 20.7 µM | TGI [31]: 65.4 µM | TGI [32]: 31.4 µM | TGI [33]: 84.7 µM | TGI [34]: 33.8 µM | TGI [35]: 22.1 µM | TGI [36]: 21 µM | TGI [37]: 26 µM | TGI [38]: 28.7 µM | TGI [39]: 33.1 µM | TGI [40]: 24.7 µM | TGI [41]: 44.1 µM | TGI [42]: 44.3 µM | TGI [43]: 29.4 µM | TGI [44]: 50 µM | TGI [45]: 47 µM | TGI [46]: 29.4 µM | TGI [47]: 29.6 µM | TGI [48]: 22.3 µM | TGI [49]: 30.5 µM | TGI [50]: 83.3 µM | TGI [51]: 17.4 µM | TGI [52]: 43 µM | TGI [53]: > 100 µM | TGI [54]: 83.1 µM | TGI [55]: 68.9 µM
